Measurements taken from patent US20200131156A1, “ARYLSULFONYLPYROLECARBOXAMIDE DERIVATIVES AS Kv3 POTASSIUM CHANNEL ACTIVATORS” (H. Lundbeck A/S, priority 2018, published 2020).

What was measured:
[1] = biological target: T1, human Kv3.3 (Homo sapiens, UniProt Q14003); experiment: Manual patch clamp electrophysiology, HEK-293 cells stably expressing human Kv3.3; type: cell-based; conditions: for hKv3.3 ECΔ30% increase: concentration increasing current by 30% at the −10 mV step; for hKv3.3 ECΔ5 mV: concentration that shifts activation threshold by 5 mV
T1 construct: expressed in transfected cells
T1 sequence (Q14003 1-757): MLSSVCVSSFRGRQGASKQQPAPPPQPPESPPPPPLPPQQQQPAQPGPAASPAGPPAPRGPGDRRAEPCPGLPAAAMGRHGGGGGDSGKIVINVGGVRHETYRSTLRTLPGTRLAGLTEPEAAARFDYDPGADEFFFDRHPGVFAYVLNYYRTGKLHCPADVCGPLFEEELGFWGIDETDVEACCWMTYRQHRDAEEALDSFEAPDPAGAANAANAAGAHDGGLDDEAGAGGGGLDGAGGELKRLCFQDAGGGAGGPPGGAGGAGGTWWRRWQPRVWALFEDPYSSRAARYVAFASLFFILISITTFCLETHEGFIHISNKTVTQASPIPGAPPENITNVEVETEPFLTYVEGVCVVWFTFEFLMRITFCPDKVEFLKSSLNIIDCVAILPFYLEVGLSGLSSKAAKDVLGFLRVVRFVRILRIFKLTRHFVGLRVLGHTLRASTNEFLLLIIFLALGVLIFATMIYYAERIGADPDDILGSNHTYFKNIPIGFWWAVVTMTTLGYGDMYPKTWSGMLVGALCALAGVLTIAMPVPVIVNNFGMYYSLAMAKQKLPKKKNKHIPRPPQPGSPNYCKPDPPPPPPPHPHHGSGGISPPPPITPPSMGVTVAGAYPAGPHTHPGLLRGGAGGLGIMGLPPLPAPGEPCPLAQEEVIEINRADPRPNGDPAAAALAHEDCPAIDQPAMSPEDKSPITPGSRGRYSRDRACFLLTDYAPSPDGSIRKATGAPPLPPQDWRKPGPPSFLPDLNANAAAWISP
Description: (§1) Manual Patch Clamp Electrophysiological Evaluation, hKv3.1, hKv3.2, hKv3.3, hKv3.4:
(§2) HEK-293 cells stably expressing human Kv3.1b, Kv3.2, Kv3.3 or Kv3.4 were used for the experiments.
(§3) Kv3.1b, Kv3.2: Cells were cultured in MEM medium supplemented with 10% Fetal Bovine Serum, 1% Penicillin/Streptomycin, 2 mM glutamine and 0.6 mg/mL geneticin. Cells were grown to 80-90% confluency at 37° C. and 5% CO2 Kv3.3 or Kv3.4: Cells were cultured in DMEM medium supplemented with 10% Fetal Bovine Serum, 500 ug/mL Geneticidin and 1% Penicillin/Streptomycin. Cells were grown to 80-90% confluency at 37° C. and 5% CO2.
(§4) On the day of the experiment the cells were detached by TrypLE and resuspended in culture medium. Cells were centrifuged, media removed and the cells were resuspended in extracellular buffer containing (in mM): 130 Na-gluconate, 20 NaCl, 4 KCl, 1 MgCl2, 1.8 CaCl2, 10 HEPES and 5 glucose, pH 7.3 adjusted with NaOH, 310-320 mOsm
(§5) Patch-clamp recordings were performed using a manual patch-clamp system (Axon Multiclamp 700B, Digidata 1440, pCLAMP 10, Molecular Devices Corporation) with a fast perfusion system (RSC-160 Rapid solution Changer, BioLogic). Whole-cell recordings were carried out using an intracellular solution containing (in mM): 100 K-gluconate, 40 KCl, 10 HEPES, 1 EGTA, 1 MgCl2, pH 7.2 adjusted with KOH, 290-300 mOsm. Cell membrane potentials were held at −80 mV and current voltage-relationship was generated by voltage steps (50 ms duration) from −100 mV to +10 mV (in 10 mV increments) and then back to −100 mV for 50 ms, with inter-sweep interval of 3 s. The peak current amplitude of −10 mV was monitored until stable (<5% change) by using one step voltage protocol. One IV protocol was run as baseline, then compound perfusion was stared and peak current stability was monitored with single step protocol prior to the IV protocol. Single concentrations were measured per cell. Acceptable cells had seal resistance >500 MOhm, Access resistance <10 MOhm, and leak current <200 pA.
(§6) Data analysis was performed using Clampfit (V10.2) in combination with Microsoft Excel™ (Redmond, Wash., USA). Current voltage relationships were plotted from the peak current (baseline subtracted) at the individual voltage steps normalized to the vehicle addition at 10 mV. The voltage threshold for channel activation was defined as 5% activation of the peak current at 10 mV in presence of vehicle. […] The concentration needed to shift the threshold 5 mV was readout from this curve (ECΔ5 mV), as well as the ability to increase the peak current at the −10 mV step (EC30% increase). […]

[2] = Unbound fraction in brain; type: in vitro ADME, rat
[3] = biological target: T2, human Kv3.1b (Homo sapiens, UniProt P48547); experiment: Manual patch clamp electrophysiology, HEK-293 cells stably expressing human Kv3.1b; type: cell-based; conditions: for hKv3.1 ECΔ30% increase: concentration increasing current by 30% at the −10 mV step; for hKv3.1 ECΔ5 mV: concentration that shifts activation threshold by 5 mV
T2 construct: expressed in transfected cells
T2 sequence (P48547 1-585 isoform P48547-2): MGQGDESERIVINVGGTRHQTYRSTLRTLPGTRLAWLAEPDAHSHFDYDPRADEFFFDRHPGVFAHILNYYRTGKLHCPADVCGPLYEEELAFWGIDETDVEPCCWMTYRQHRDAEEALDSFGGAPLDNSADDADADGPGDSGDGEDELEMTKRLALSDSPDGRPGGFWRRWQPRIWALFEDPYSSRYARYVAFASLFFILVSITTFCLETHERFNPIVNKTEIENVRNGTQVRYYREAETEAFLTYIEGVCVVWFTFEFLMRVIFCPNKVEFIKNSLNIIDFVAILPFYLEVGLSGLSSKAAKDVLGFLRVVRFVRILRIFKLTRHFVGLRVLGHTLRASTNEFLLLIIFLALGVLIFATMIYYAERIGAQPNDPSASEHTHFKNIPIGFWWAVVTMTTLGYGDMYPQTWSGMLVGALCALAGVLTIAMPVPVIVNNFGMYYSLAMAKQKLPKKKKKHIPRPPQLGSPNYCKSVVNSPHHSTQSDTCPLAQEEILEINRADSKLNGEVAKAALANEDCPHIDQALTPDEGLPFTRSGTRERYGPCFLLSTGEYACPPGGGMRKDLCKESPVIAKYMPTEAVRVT
Description: as §1, §2, §3, §4, §5, §6

[4] = Unbound fraction in brain (mouse PK table footnote); type: in vitro ADME

Row | hKv3.3 ECΔ30% increase [1] | hKv3.3 ECΔ5 mV [1] | fraction unbound ([2]; rat table footnote) | hKv3.1 ECΔ30% increase [3] | hKv3.1 ECΔ5 mV [3] | fraction unbound [4] | fraction unbound ([2]; rat PK table footnote) | SMILES
1 | >30 µM | 4.9 µM | 0.12 | 10.1 µM | 3.0 µM | 0.11 | – | Cc1ccc(S(=O)(=O)n2ccc(C(=O)NCc3ncco3)c2)cc1 [Compound 86, 1-(4-methylbenzene-1-sulfonyl)-N-[(1,3-oxazol-2-yl)methyl]-1H-pyrrole-3-carboxamide]
2 | 2.7 µM | 2.7 µM | – | 1.8 µM | 0.6 µM | 0.1 | 0.08 | Cc1cnc(CNC(=O)c2ccn(S(=O)(=O)c3ccc(F)cc3C)c2)cn1 [Compound 90, 1-(4-fluoro-2-methylbenzene-1-sulfonyl)-N-[(5-methylpyrazin-2-yl)methyl]-1H-pyrrole-3-carboxamide]
